# Assay results: ChEMBL document CHEMBL3879881, “Substituted pyrazolyl compounds for the treatment of inflammation” (2005)
# Molecular target: T1, Inhibitor of nuclear factor kappa-B kinase subunit beta (Homo sapiens, UniProt O14920)
# T1 sequence (O14920 whole entry): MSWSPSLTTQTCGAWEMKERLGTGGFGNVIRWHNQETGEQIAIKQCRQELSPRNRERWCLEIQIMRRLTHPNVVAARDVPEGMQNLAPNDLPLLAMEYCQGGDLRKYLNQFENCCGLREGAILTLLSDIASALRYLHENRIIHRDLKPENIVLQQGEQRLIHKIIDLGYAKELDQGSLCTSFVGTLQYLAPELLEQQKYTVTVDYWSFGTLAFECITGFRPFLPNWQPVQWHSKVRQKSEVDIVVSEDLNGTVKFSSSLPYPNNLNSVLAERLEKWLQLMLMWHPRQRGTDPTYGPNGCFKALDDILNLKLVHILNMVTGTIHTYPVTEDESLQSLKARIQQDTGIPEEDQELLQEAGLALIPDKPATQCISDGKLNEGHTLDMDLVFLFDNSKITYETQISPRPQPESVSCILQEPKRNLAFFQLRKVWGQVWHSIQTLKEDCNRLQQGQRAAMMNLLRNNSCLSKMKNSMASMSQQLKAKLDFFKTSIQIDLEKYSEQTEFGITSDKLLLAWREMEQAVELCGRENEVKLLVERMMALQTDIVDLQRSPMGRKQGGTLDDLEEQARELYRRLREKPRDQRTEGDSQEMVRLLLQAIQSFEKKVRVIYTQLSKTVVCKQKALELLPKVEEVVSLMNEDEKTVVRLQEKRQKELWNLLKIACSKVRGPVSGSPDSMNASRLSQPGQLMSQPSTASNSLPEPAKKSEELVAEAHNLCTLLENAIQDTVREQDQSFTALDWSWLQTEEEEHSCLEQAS
# Test: Inhibition of human recombinant C-terminal FLAG-epitope-tagged IKK2 expressed in baculovirus using biotinylated IkappaBalpha peptide as substrate assessed as decrease in [gamma-33P]-ATP incorporation in substrate after 30 mins by scintillation counting method
row,Structure (SMILES),IC50
1,NC(=O)c1nn(-c2ccc(S(=O)(=O)C(F)(F)F)cc2)c2c1CCc1ccc(N)cc1-2,1 to 10 µM
2,NC(=O)c1nn(-c2ccc(-c3cccc(C(=O)O)c3)cc2)c2c1CCc1ccc(NC(=O)c3ccccc3Cl)cc1-2,1 to 10 µM
3,NC(=O)c1nn(-c2cc(F)cc(F)c2)c2c1CCc1ccc(NC(=O)c3cccc(Cl)c3Cl)cc1-2,1 to 10 µM
4,NC(=O)c1nn(-c2ccc(O)cc2)c2c1CCc1ccc(NC(=O)c3cc4c(cc3Cl)OCO4)cc1-2,≤ 1 µM
5,CN(C)CCC(=O)Nc1ccc(-n2nc(C(N)=O)c3c2-c2cc(NC(=O)c4ccccc4Cl)ccc2CC3)cc1,1 to 10 µM
6,CC(C)(C)C(=O)ONCCCCC(=O)Nc1ccc(-n2nc(C(N)=O)c3c2-c2cc(NC(=O)c4ccccc4Cl)ccc2CC3)cc1,1 to 10 µM
7,NC(=O)c1nn(-c2ccc(OCC(O)CO)cc2)c2c1CCc1ccc(NC(=O)c3cccnc3Cl)cc1-2 (stereo not drawn),≤ 1 µM
8,CC(=O)Oc1cccc(C(=O)Nc2ccc3c(c2)-c2c(c(C(N)=O)nn2-c2cccc(F)c2)CC3)c1C,1 to 10 µM
9,NC(=O)c1nn(-c2ccc(/C=C3\CCOC3=O)cc2)c2c1CCc1ccc(NC(=O)c3ccccc3Cl)cc1-2,1 to 10 µM
10,NC(=O)c1nn(-c2cccc(F)c2)c2c1CCc1ccc(NC(=O)c3cccc(Cl)c3F)cc1-2,1 to 10 µM
11,CN(C)CCOc1ccc(-n2nc(C(N)=O)c3c2-c2cc(NC(=O)c4ccccc4Cl)ccc2CC3)cc1,1 to 10 µM
12,NC(=O)c1nn(-c2cccc([N+](=O)[O-])c2)c2c1CCc1ccc(NC(=O)c3ccccc3Cl)cc1-2,1 to 10 µM
13,NC(=O)c1nn(-c2ccc(C(F)(F)F)cc2)c2c1CCc1ccc(NC(=O)c3ccccc3Cl)cc1-2,1 to 10 µM
14,CN(C)C(=O)/C=C/c1ccc(-n2nc(C(N)=O)c3c2-c2cc(NC(=O)c4cccnc4Cl)ccc2CC3)cc1,1 to 10 µM
15,CS(=O)(=O)Nc1ccc2c(c1)-c1c(c(C(N)=O)nn1-c1ccccc1)CC2,1 to 10 µM
16,CNC(=O)/C=C/c1ccc(-n2nc(C(N)=O)c3c2-c2cc(N)ccc2CC3)cc1,1 to 10 µM
17,NC(=O)c1nn(-c2cccc(F)c2)c2c1CCc1ccc(NC(=O)c3cccc(Cl)c3Cl)cc1-2,1 to 10 µM
18,NC(=O)c1nn(-c2ccc(C(=O)O)cc2)c2c1CCc1ccc(NC(=O)c3ccccc3Cl)cc1-2,1 to 10 µM
19,CN(C)C(=O)/C=C/c1ccc(-n2nc(C(N)=O)c3c2-c2cc(NS(C)(=O)=O)ccc2CC3)cc1,1 to 10 µM
20,NC(=O)c1nn(-c2cc(F)c(N)cc2F)c2c1CCc1ccc(NC(=O)c3ccncc3Cl)cc1-2,≤ 1 µM
21,NC(=O)c1nn(-c2cccc(Cl)c2)c2c1CCc1ccc(NC(=O)c3ccccc3Cl)cc1-2,≤ 1 µM
22,NC(=O)c1nn(-c2ccc(NC(=O)c3ccccc3)cc2)c2c1CCc1ccc(NC(=O)c3ccccc3Cl)cc1-2,1 to 10 µM
23,NC(=O)c1nn(-c2ccc(-c3cccnc3)cc2)c2c1CCc1ccc(NC(=O)c3ccccc3Cl)cc1-2,1 to 10 µM
24,NC(=O)c1nn(-c2ccc(-c3cccc(CO)c3)cc2)c2c1CCc1ccc(NC(=O)c3ccccc3Cl)cc1-2,1 to 10 µM
25,CC1(C)OCC(COc2ccc(-n3nc(C(N)=O)c4c3-c3cc(NC(=O)c5ccc(S(C)(=O)=O)cc5Cl)ccc3CC4)cc2)O1 (stereo not drawn),1 to 10 µM

row,Structure (SMILES),IC50
1,CS(=O)(=O)Nc1ccc2c(c1)-c1c(c(C(N)=O)nn1-c1cccc(O)c1)CC2,1 to 10 µM
2,NC(=O)/C=C/c1ccc(-n2nc(C(N)=O)c3c2-c2cc(NC(=O)c4cccnc4Cl)ccc2CC3)cc1,≤ 1 µM
3,Cc1ccccc1C(=O)Nc1ccc2c(c1)-c1c(c(C(N)=O)nn1-c1ccc(Br)cc1)CC2,≤ 1 µM
4,CC(=O)/C=C/c1ccc(-n2nc(C(N)=O)c3c2-c2cc(NC(=O)c4ccccc4Cl)ccc2CC3)cc1,≤ 1 µM
5,CS(=O)(=O)c1ccc(C(=O)Nc2ccc3c(c2)-c2c(c(C(N)=O)nn2-c2ccc(OCC(O)CO)cc2)CC3)c(Cl)c1 (stereo not drawn),≤ 1 µM
6,C[S+]([O-])c1ccc(Cl)c(C(=O)Nc2ccc3c(c2)-c2c(c(C(N)=O)nn2-c2ccc(O)cc2)CC3)c1 (stereo not drawn),≤ 1 µM
7,CC1(C)OCC(COc2ccc(-n3nc(C(N)=O)c4c3-c3cc(NC(=O)c5ccccc5Cl)ccc3CC4)cc2)O1 (stereo not drawn),≤ 1 µM
8,CNC(=O)/C=C/c1ccc(-n2nc(C(N)=O)c3c2-c2cc(NS(C)(=O)=O)ccc2CC3)cc1,≤ 1 µM
9,NC(=O)c1nn(-c2ccc(OCC(O)CO)cc2)c2c1CCc1ccc(NC(=O)c3cc(N)ccc3Cl)cc1-2 (stereo not drawn),≤ 1 µM
10,CC(=O)CCc1ccc(-n2nc(C(N)=O)c3c2-c2cc(NS(C)(=O)=O)ccc2CC3)cc1,1 to 10 µM
11,NC(=O)c1nn(-c2ccc(F)c(F)c2)c2c1CCc1ccc(NC(=O)c3cccc(Cl)c3Cl)cc1-2,1 to 10 µM
12,CN(C)CCCOc1ccc(-n2nc(C(N)=O)c3c2-c2cc(NC(=O)c4ccccc4Cl)ccc2CC3)cc1,1 to 10 µM
13,NC(=O)c1nn(-c2ccc(-c3ccc(C(=O)O)cc3)cc2)c2c1CCc1ccc(NC(=O)c3ccccc3Cl)cc1-2,1 to 10 µM
14,COc1ccc(-c2ccc(-n3nc(C(N)=O)c4c3-c3cc(NC(=O)c5ccccc5Cl)ccc3CC4)cc2)cc1OC,1 to 10 µM
15,NC(=O)c1nn(-c2ccc(O)cc2)c2c1CCc1ccc(NC(=O)c3cc([N+](=O)[O-])ccc3Cl)cc1-2,≤ 1 µM
16,NC(=O)c1nn(-c2cc(F)cc(F)c2)c2c1CCc1ccc(NC(=O)c3ccccc3Cl)cc1-2,≤ 1 µM
17,NC(=O)c1nn(-c2ccc(NC(=O)COCc3ccccc3)cc2)c2c1CCc1ccc(NC(=O)c3ccccc3Cl)cc1-2,1 to 10 µM
18,NC(=O)c1nn(-c2cccnc2)c2c1CCc1ccc(NC(=O)c3ccccc3Cl)cc1-2,1 to 10 µM
19,NC(=O)c1nn(-c2ccc(-n3cccc3)cc2)c2c1CCc1ccc(NC(=O)c3ccccc3Cl)cc1-2,1 to 10 µM
20,CN(C)C/C=C/c1ccc(-n2nc(C(N)=O)c3c2-c2cc(NC(=O)c4ccccc4Cl)ccc2CC3)cc1,1 to 10 µM
21,Cc1cccc(-n2nc(C(N)=O)c3c2-c2cc(NC(=O)c4ccccc4Cl)ccc2CC3)c1,≤ 1 µM
22,NC(=O)c1nn(-c2ccc(Cl)cc2)c2c1CCc1ccc(NC(=O)c3ccccc3Cl)cc1-2,≤ 1 µM
23,NC(=O)c1nn(-c2ccc(Cl)c(Cl)c2)c2c1CCc1ccc(NC(=O)c3ccccc3Cl)cc1-2,1 to 10 µM
24,NC(=O)c1nn(-c2ccc(OC(F)(F)F)cc2)c2c1CCc1ccc(NC(=O)c3ccccc3Cl)cc1-2,1 to 10 µM
25,CC(C)(O)/C=C/c1ccc(-n2nc(C(N)=O)c3c2-c2cc(NC(=O)c4cccnc4Cl)ccc2CC3)cc1,1 to 10 µM

row,Structure (SMILES),IC50
1,NC(=O)c1nn(-c2ccc(CCCO)cc2)c2c1CCc1ccc(NC(=O)c3cccnc3Cl)cc1-2,≤ 1 µM
2,COc1cccc(-n2nc(C(N)=O)c3c2-c2cc(NC(=O)c4ccccc4Cl)ccc2CC3)c1,1 to 10 µM
3,NC(=O)c1nn(-c2ccc(/C=C/C(=O)NCc3ccccc3)cc2)c2c1CCc1ccc(NC(=O)c3ccccc3Cl)cc1-2,1 to 10 µM
4,CC(C)c1ccc(-n2nc(C(N)=O)c3c2-c2cc(NC(=O)c4ccccc4Cl)ccc2CC3)cc1,1 to 10 µM
5,NC(=O)c1nn(-c2ccc(-c3cccc(N)c3)cc2)c2c1CCc1ccc(NC(=O)c3ccccc3Cl)cc1-2,1 to 10 µM
6,CC1(C)OCC(COc2ccc(-n3nc(C(N)=O)c4c3-c3cc(NC(=O)c5cccnc5Cl)ccc3CC4)cc2)O1 (stereo not drawn),1 to 10 µM
7,CC1(C)OCC(COc2ccc(-n3nc(C(N)=O)c4c3-c3cc(NC(=O)c5ccncc5Cl)ccc3CC4)cc2)O1 (stereo not drawn),1 to 10 µM
8,NC(=O)c1nn(-c2ccc(-c3ccoc3)cc2)c2c1CCc1ccc(NC(=O)c3ccccc3Cl)cc1-2,1 to 10 µM
9,NC(=O)c1nn(-c2cc(F)c(N)c(F)c2)c2c1CCc1ccc(NC(=O)c3ccncc3Cl)cc1-2,≤ 1 µM
10,NC(=O)c1nn(-c2ccc(Cl)cc2)c2c1CCc1ccc(NC(=O)c3cnccc3Cl)cc1-2,≤ 1 µM
11,NC(=O)c1nn(-c2ccc(OCc3ccccc3)cc2)c2c1CCc1ccc(NC(=O)c3cccnc3Cl)cc1-2,1 to 10 µM
12,NC(=O)c1nn(-c2ccc(Br)cc2)c2c1CCc1ccc(N)cc1-2,1 to 10 µM
13,NC(=O)c1nn(-c2ccc(OCC(O)CO)cc2)c2c1CCc1ccc(NC(=O)c3ccccc3Cl)cc1-2 (stereo not drawn),≤ 1 µM
14,NC(=O)c1nn(-c2ccc(C(F)(F)F)cc2)c2c1CCc1ccc(N)cc1-2,1 to 10 µM
15,CCOC(=O)/C=C/c1ccc(-n2nc(C(N)=O)c3c2-c2cc(NC(=O)c4ccccc4Cl)ccc2CC3)cc1,1 to 10 µM
16,NC(=O)c1nn(-c2ccc(OCC(O)CO)cc2)c2c1CCc1ccc(NC(=O)c3ccncc3Cl)cc1-2 (stereo not drawn),≤ 1 µM
17,NC(=O)c1nn(-c2ccc(NC(=O)c3ccccc3Cl)cc2)c2c1CCc1ccc(NC(=O)c3ccccc3Cl)cc1-2,1 to 10 µM
18,NC(=O)c1nn(-c2cccc(F)c2)c2c1CCc1ccc(NC(=O)c3cccc(F)c3F)cc1-2,1 to 10 µM
19,NC(=O)c1nn(-c2cccc(O)c2)c2c1CCc1ccc(NC(=O)c3cc(N)ccc3Cl)cc1-2,≤ 1 µM
20,CN(C)CCN(C)c1cc(C(=O)Nc2ccc3c(c2)-c2c(c(C(N)=O)nn2-c2ccc(F)cc2)CC3)c(Cl)cn1,≤ 1 µM
21,CN1CCCN(c2cc(C(=O)Nc3ccc4c(c3)-c3c(c(C(N)=O)nn3-c3ccc(F)cc3)CC4)c(Cl)cn2)CC1,≤ 1 µM
22,CN1CCN(c2cc(C(=O)Nc3ccc4c(c3)-c3c(c(C(N)=O)nn3-c3ccc(F)cc3)CC4)c(Cl)cn2)CC1,≤ 1 µM
23,NC(=O)c1nn(-c2ccc(F)cc2)c2c1CCc1ccc(NC(=O)c3nc(N4CCOCC4)ccc3Cl)cc1-2,1 to 10 µM
